Data on 2 molecules can be found in patent US20220409743A1, “VIRUS-MIMETIC NANOPARTICLES” (UNIVERSITÄT REGENSBURG, priority 2019, published 2022).

By IC50 is commonly meant the concentration that gives 50% inhibition.

One assay deals with T1, AT1R (Rattus norvegicus, UniProt P25095).
T1 sequence (P25095 1-359): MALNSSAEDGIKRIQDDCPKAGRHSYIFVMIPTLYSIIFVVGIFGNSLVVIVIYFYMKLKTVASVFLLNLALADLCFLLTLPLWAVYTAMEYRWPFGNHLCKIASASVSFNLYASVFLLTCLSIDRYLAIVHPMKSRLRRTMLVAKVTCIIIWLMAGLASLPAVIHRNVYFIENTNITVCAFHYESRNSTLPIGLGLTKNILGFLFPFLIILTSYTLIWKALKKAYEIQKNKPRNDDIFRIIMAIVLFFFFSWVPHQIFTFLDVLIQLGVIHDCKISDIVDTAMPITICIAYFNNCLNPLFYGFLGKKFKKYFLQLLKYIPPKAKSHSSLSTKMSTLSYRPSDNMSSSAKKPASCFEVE
In words: Intracellular calcium measurement (Fura-2): ligand affinity and particle avidity for the AT1R. To be noted: read-out: IC50, ligand affinity for the AT1R; free ligand; rMCs incubated 30 min prior to stimulation with Ang-II.

The target of another assay is T2, sGC (Rattus norvegicus, UniProt P20595).
T2 construct: endogenous in cells; host or cells: mesangial cells
T2 sequence (P20595 1-619): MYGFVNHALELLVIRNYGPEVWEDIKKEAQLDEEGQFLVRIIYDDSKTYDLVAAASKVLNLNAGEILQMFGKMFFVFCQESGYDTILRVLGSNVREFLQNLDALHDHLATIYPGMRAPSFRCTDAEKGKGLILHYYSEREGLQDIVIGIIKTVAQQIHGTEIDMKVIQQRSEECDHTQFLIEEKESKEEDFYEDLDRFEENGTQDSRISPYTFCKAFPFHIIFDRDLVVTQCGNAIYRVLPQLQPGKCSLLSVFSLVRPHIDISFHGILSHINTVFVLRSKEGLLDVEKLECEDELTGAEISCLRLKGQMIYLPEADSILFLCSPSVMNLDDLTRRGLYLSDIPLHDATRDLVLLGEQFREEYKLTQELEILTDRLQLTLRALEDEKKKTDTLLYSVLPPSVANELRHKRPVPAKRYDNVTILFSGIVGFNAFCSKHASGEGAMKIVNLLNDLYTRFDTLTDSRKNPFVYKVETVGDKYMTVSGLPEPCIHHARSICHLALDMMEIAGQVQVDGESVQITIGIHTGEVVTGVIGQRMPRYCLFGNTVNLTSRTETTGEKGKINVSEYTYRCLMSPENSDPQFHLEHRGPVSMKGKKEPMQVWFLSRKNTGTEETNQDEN
T2 sequence (P19686 1-690 partner): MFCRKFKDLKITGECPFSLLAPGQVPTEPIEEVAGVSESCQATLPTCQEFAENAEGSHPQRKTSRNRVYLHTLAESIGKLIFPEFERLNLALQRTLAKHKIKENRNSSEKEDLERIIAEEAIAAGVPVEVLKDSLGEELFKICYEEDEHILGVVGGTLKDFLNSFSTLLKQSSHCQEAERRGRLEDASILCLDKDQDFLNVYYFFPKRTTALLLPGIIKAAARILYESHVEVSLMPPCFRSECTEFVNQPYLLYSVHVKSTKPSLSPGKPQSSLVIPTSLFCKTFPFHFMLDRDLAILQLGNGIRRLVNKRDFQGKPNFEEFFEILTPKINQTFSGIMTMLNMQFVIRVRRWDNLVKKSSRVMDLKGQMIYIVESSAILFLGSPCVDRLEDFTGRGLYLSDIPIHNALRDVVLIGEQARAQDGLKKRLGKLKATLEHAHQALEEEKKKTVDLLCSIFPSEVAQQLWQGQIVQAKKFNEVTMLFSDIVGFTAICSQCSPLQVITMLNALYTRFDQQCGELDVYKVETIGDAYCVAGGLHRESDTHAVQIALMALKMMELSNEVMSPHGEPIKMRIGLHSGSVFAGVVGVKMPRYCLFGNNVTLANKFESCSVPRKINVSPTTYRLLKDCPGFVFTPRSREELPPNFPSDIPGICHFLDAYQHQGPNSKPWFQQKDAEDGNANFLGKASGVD
The experiment in a line: Western Blot of sGC levels in mesangial cells. To be noted: 24 h incubation; free CCG 2 μM, NPs 0.2 μM CCG. Type of assay: cell-based. As to the method: (§1) In the inventors' experimental set-up, CCG was initially encapsulated in hetero-multivalent EXPcRGD NPs. Resulting NPs carried approximately 500-700 CCG molecules per NP (data not shown). In all following experiments, the administration of free cinaciguat at a concentration of 2 μM was compared to CCG-loaded EXPcRGD NPs at a concentration of approximately 0.5 nM (equaling 0.2 μM of CCG) and drug-free EXPcRGD control NPs (FIG. 30). […] CCG-carrying NPs however carried only 10% of respective CCG amount to test a possible drug delivery effect.
To assess the effect of CCG-loaded EXPcRGD NPs on target sGC, mesangial cells were initially incubated for 24 h and protein quantity was assessed using Western Blot analysis.
(In western blotting, separated proteins are transferred to a membrane and probed.)

The next assay deals with PGK1-α. The experiment in a line: Western Blot of VASP phosphorylation (PGK1-α activity). As to conditions: free CCG 2 μM, NPs 0.2 μM CCG. Type of assay: cell-based. How it is done: To assess PGK1-αactivity, phosphorylation of its substrate vasodilator-stimulated phosphoprotein (VASP) was assessed. […] (n=3; ****P<0.0001; ***P<0.001; **P<0.01; *P<0.05).
as §1

The next assay deals with mesangial cells. In words: Proliferation assay of TGF-β stimulated mesangial cells. Type of assay: cell-based. To be noted: 4 h pre-incubation, 10 ng mL^−1 TGF-β 48 h. How it is done: (§2) Finally, the anti-fibrotic and anti-proliferative potential of a NP-assisted CCG delivery was analyzed. In that regard, mesangial cells were initially incubated for 4 h either with free CCG, CCG-loaded EXPcRGD NPs or control NPs without encapsulated drug. After 4 h, 10 ng mL^−1 of transforming growth factor β (TGF-β) were added for 48 h to induce a fibrotic and hyperproliferative remodeling.

A further assay deals with α-SMA. The experiment in a line: Western Blot / LSM of fibrosis marker α-SMA after TGF-β. Type of assay: cell-based. To be noted: 4 h pre-incubation, 10 ng mL^−1 TGF-β 48 h. How it is done: as §2
The next assay relates to Collagen I. In words: Western Blot of fibrosis marker Collagen I after TGF-β. Type of assay: cell-based. To be noted: 4 h pre-incubation, 10 ng mL^−1 TGF-β 48 h. How it is done:
as §2

Description for AT1R: In order to assess the AT1R interaction of the different NP formulations a ratiometric Fura-2 Ca^2+ chelator method was used as previously described [1, 3] using AT1R positive rMCs. For that purpose, rMCs were seeded in T-150 flasks (Corning) and incubated until confluent. […] Cells were incubated for 1 hour, light protected, with gentle agitation (50 rpm). Afterwards, the cell suspension was washed with DPBS by centrifugation (2×, 200 g, 5 min, RT), and resuspended in Leibovitz medium supplemented with 2.5 mM Probenecid at a count of 2 million cells/mL. […] To determine the kinetics of the AT1R interaction (FIG. 3D) the same procedure was used, but the samples were incubated for different time periods (from 5 to 320min) with the cells. The maximal and minimal signal ratio, was determined by stimulating the cells with 0.1% Triton-X 100 or 0.1% Triton-X 100 with 45 mM ethylene glycol-bis(2-aminoethylether)-N,N,N′,N′-tetraacetic acid (EGTA), respectively.

“angiotensin-I (DRVYIHPFHL; Angiotensin-1; UniProt P01019 25-34, looked up) [Ang-I]”: in the assay with AT1R, the IC50 stood at 900 ± 600 nM.

Regarding `O=C(O)CCCCN(CCc1ccccc1OCc1ccc(CCc2ccccc2)cc1)Cc1ccc(C(=O)O)cc1` [CCG, Cinaciguat], the sGC levels result on sGC is recorded as “substantial increase in sGC levels”. Besides, the P-VASP/VASP ratio entry with PGK1-α was “considerable increase in P-VASP/VASP ratio”. In addition, the “Effect on TGF-β induced hyperproliferation” value in the assay with mesangial cells was “considerably decreased this effect”. In the assay with α-SMA, the “α-SMA levels compared to the TGF-β control” value was “drastic reduction”. For the same molecule, the “Collagen I levels compared to the TGF-β control” value in the assay on Collagen I was “drastic reduction”.
